# In ChEMBL document CHEMBL1201862, “PubChem BioAssay data set” (2004):
#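 Values below derive from 48-hour exposures of cells grown in 96-well plates, with endpoints linearly interpolated between the two concentrations bracketing the appropriate inhibition level. GI50 is the concentration that inhibits growth by half.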 Activity calls are given as the source filed them. Cut-off read from the data, not from the text of the source: active = GI50 up to about 1.1 µM and inactive = higher.
# What was measured:
# Test in all cases: DTP human tumour cell line panel, 48 h
# CCRF-CEM = system: CCRF-CEM
# HCC 2998 = system: HCC 2998
# MDA-N = system: MDA-N
# SN12C = system: SN12C
# SR = system: SR
# A549 = system: A549
# SK-MEL-5 = system: SK-MEL-5
# EKVX = system: EKVX
# OVCAR-3 = system: OVCAR-3
# PC-3 = system: PC-3
# SNB-75 = system: SNB-75
# MOLT-4 = system: MOLT-4
# MDA-MB-231 = system: MDA-MB-231
# MCF7 = system: MCF7
# IGROV-1 = system: IGROV-1
# M14 = system: M14
# NCI-H460 = system: NCI-H460
# ACHN = system: ACHN
# MDA-MB-435 = system: MDA-MB-435
# KM12 = system: KM12
# RXF 393 = system: RXF 393
# OVCAR-8 = system: OVCAR-8
# LOX IMVI = system: LOX IMVI
# CAKI-1 = system: CAKI-1
# SNB-19 = system: SNB-19
# HOP-92 = system: HOP-92
# NCI-H23 = system: NCI-H23
# 786-0 = system: 786-0
# OVCAR-5 = system: OVCAR-5
# SK-MEL-28 = system: SK-MEL-28
# NCI-H226 = system: NCI-H226
# DU-145 = system: DU-145
# U-251 = system: U-251
# A498 = system: A498
# UACC-257 = system: UACC-257
# SK-MEL-2 = system: SK-MEL-2
# SW-620 = system: SW-620
# UO-31 = system: UO-31
# HCT-15 = system: HCT-15
# Malme-3M = system: Malme-3M
# NCI/ADR-RES = system: NCI/ADR-RES
# SK-OV-3 = system: SK-OV-3
# HL-60 = system: HL-60
# Hs-578T = system: Hs-578T
# HCT-116 = system: HCT-116
# BT-549 = system: BT-549
# T47D = system: T47D
# RPMI-8226 = system: RPMI-8226
# TK-10 = system: TK-10
# HOP-62 = system: HOP-62
# K562 = system: K562
# SF-295 = system: SF-295
# HT-29 = system: HT-29
# SF-268 = system: SF-268
# OVCAR-4 = system: OVCAR-4
# COLO 205 = system: COLO 205
# NCI-H522 = system: NCI-H522
# SF-539 = system: SF-539
# UACC-62 = system: UACC-62
smiles,measurement,setting,value
C=CCn1c2c(c3ccccc3c1=O)C(=O)c1ccccc1-2,GI50,CCRF-CEM,> 100 µM (inactive)
same,GI50,HCC 2998,> 100 µM (inactive)
same,GI50,MDA-N,> 100 µM (inactive)
same,GI50,SN12C,> 100 µM (inactive)
same,GI50,SR,3.97 µM (inactive)
same,GI50,A549,> 100 µM (inactive)
same,GI50,SK-MEL-5,43.8 µM (inactive)
same,GI50,EKVX,> 100 µM (inactive)
same,GI50,OVCAR-3,> 100 µM (inactive)
same,GI50,PC-3,> 100 µM (inactive)
same,GI50,SNB-75,> 81.5 µM (inactive)
same,GI50,MOLT-4,3.4 µM (inactive)
same,GI50,MDA-MB-231,> 85.3 µM (inactive)
same,GI50,MCF7,> 100 µM (inactive)
same,GI50,IGROV-1,> 100 µM (inactive)
same,GI50,M14,> 100 µM (inactive)
same,GI50,NCI-H460,6.28 µM (inactive)
same,GI50,ACHN,51.9 µM (inactive)
same,GI50,MDA-MB-435,> 87.3 µM (inactive)
same,GI50,KM12,> 72.9 µM (inactive)
same,GI50,RXF 393,15.9 µM (inactive)
same,GI50,OVCAR-8,> 88.9 µM (inactive)
same,GI50,LOX IMVI,> 100 µM (inactive)
same,GI50,CAKI-1,> 100 µM (inactive)
same,GI50,SNB-19,73.8 µM (inactive)
same,GI50,HOP-92,> 100 µM (inactive)
same,GI50,NCI-H23,> 100 µM (inactive)
same,GI50,786-0,22.4 µM (inactive)
same,GI50,OVCAR-5,> 100 µM (inactive)
same,GI50,SK-MEL-28,> 100 µM (inactive)
same,GI50,NCI-H226,> 100 µM (inactive)
same,GI50,DU-145,> 89.3 µM (inactive)
same,GI50,U-251,30.8 µM (inactive)
same,GI50,A498,> 100 µM (inactive)
same,GI50,UACC-257,> 100 µM (inactive)
same,GI50,SK-MEL-2,> 100 µM (inactive)
same,GI50,SW-620,73.6 µM (inactive)
same,GI50,UO-31,> 100 µM (inactive)
same,GI50,HCT-15,> 100 µM
same,GI50,Malme-3M,> 100 µM (inactive)
same,GI50,NCI/ADR-RES,> 100 µM (inactive)
same,GI50,SK-OV-3,> 100 µM (inactive)
same,GI50,HL-60,3.41 µM (inactive)
same,GI50,Hs-578T,> 60.3 µM (inactive)
same,GI50,HCT-116,> 26.2 µM (inactive)
same,GI50,BT-549,> 100 µM (inactive)
same,GI50,T47D,> 100 µM (inactive)
same,GI50,RPMI-8226,> 25.6 µM (inactive)
same,GI50,TK-10,> 50.6 µM (inactive)
same,GI50,HOP-62,31.4 µM (inactive)
same,GI50,K562,> 23 µM (inactive)
same,GI50,SF-295,> 77.8 µM (inactive)
same,GI50,HT-29,> 100 µM (inactive)
same,GI50,SF-268,> 68.1 µM (inactive)
same,GI50,OVCAR-4,54.8 µM (inactive)
same,GI50,COLO 205,> 100 µM (inactive)
same,GI50,NCI-H522,> 100 µM (inactive)
same,GI50,SF-539,> 70.6 µM (inactive)
same,GI50,UACC-62,> 78 µM (inactive)
NC(=O)C(Nc1ccc(Cl)cc1)c1cc2cc(Br)ccc2nc1Cl (centres undefined),GI50,CCRF-CEM,23.8 µM (inactive)
same,GI50,HCC 2998,> 50 µM (inactive)
same,GI50,MDA-N,43.7 µM (inactive)
same,GI50,SN12C,> 50 µM (inactive)
same,GI50,SR,18.9 µM (inactive)
same,GI50,A549,30.2 µM (inactive)
same,GI50,SK-MEL-5,42.2 µM (inactive)
same,GI50,EKVX,18.6 µM (inactive)
same,GI50,OVCAR-3,> 50 µM (inactive)
same,GI50,PC-3,> 50 µM (inactive)
same,GI50,SNB-75,> 50 µM (inactive)
same,GI50,MOLT-4,19.5 µM (inactive)
same,GI50,MDA-MB-231,> 50 µM (inactive)
same,GI50,MCF7,40.8 µM (inactive)
same,GI50,IGROV-1,17.6 µM (inactive)
same,GI50,M14,> 50 µM (inactive)
same,GI50,NCI-H460,> 50 µM (inactive)
same,GI50,ACHN,> 50 µM (inactive)
same,GI50,MDA-MB-435,32.7 µM (inactive)
same,GI50,KM12,> 50 µM (inactive)
same,GI50,RXF 393,41.1 µM (inactive)
same,GI50,OVCAR-8,> 50 µM (inactive)
same,GI50,LOX IMVI,> 50 µM (inactive)
same,GI50,CAKI-1,> 50 µM (inactive)
same,GI50,SNB-19,> 50 µM (inactive)
same,GI50,HOP-92,17.7 µM (inactive)
same,GI50,NCI-H23,> 50 µM (inactive)
same,GI50,786-0,> 50 µM (inactive)
same,GI50,OVCAR-5,> 50 µM (inactive)
same,GI50,SK-MEL-28,48 µM (inactive)
same,GI50,NCI-H226,> 50 µM (inactive)
same,GI50,DU-145,> 50 µM (inactive)
same,GI50,A498,> 50 µM (inactive)
same,GI50,UACC-257,> 50 µM (inactive)
same,GI50,SK-MEL-2,> 50 µM (inactive)
same,GI50,SW-620,34.8 µM (inactive)
same,GI50,UO-31,> 50 µM (inactive)
same,GI50,HCT-15,> 50 µM
same,GI50,Malme-3M,> 50 µM (inactive)
same,GI50,NCI/ADR-RES,> 50 µM (inactive)
same,GI50,SK-OV-3,> 50 µM (inactive)
same,GI50,HL-60,> 50 µM (inactive)
same,GI50,Hs-578T,> 50 µM (inactive)
same,GI50,HCT-116,> 50 µM (inactive)
same,GI50,BT-549,> 50 µM (inactive)
same,GI50,T47D,37.2 µM (inactive)
same,GI50,RPMI-8226,27.8 µM (inactive)
same,GI50,TK-10,19.9 µM (inactive)
same,GI50,HOP-62,> 50 µM (inactive)
same,GI50,K562,20.5 µM (inactive)
same,GI50,SF-295,> 50 µM (inactive)
same,GI50,HT-29,> 50 µM (inactive)
same,GI50,SF-268,> 50 µM (inactive)
same,GI50,OVCAR-4,> 50 µM (inactive)
same,GI50,COLO 205,> 50 µM (inactive)
same,GI50,NCI-H522,31.5 µM (inactive)
same,GI50,SF-539,18.5 µM (inactive)
same,GI50,UACC-62,> 50 µM (inactive)
O=C1CSC(c2cccc(Oc3ccccc3)c2)N1c1cccc(Cl)c1Cl (centres undefined),GI50,CCRF-CEM,18.5 µM (inactive)
same,GI50,HCC 2998,12.3 µM (inactive)
same,GI50,MDA-N,21 µM (inactive)
same,GI50,SN12C,31.5 µM (inactive)
same,GI50,SR,19.8 µM (inactive)
same,GI50,A549,> 100 µM (inactive)
same,GI50,SK-MEL-5,18.4 µM (inactive)
same,GI50,EKVX,25.2 µM (inactive)
same,GI50,OVCAR-3,30.5 µM (inactive)
same,GI50,PC-3,25.7 µM (inactive)
same,GI50,SNB-75,41 µM (inactive)
same,GI50,MOLT-4,22.5 µM (inactive)
same,GI50,MDA-MB-231,22.3 µM (inactive)
same,GI50,MCF7,13.7 µM (inactive)
same,GI50,M14,40.4 µM (inactive)
same,GI50,NCI-H460,26 µM (inactive)
same,GI50,ACHN,20.7 µM (inactive)
same,GI50,MDA-MB-435,13.7 µM (inactive)
same,GI50,KM12,26.7 µM (inactive)
same,GI50,RXF 393,57.1 µM (inactive)
same,GI50,OVCAR-8,19.8 µM (inactive)
same,GI50,LOX IMVI,13.6 µM (inactive)
same,GI50,CAKI-1,65.2 µM (inactive)
same,GI50,SNB-19,42.8 µM (inactive)
same,GI50,HOP-92,12.3 µM (inactive)
same,GI50,NCI-H23,27.5 µM (inactive)
same,GI50,786-0,27.7 µM (inactive)
same,GI50,OVCAR-5,33.5 µM (inactive)
same,GI50,SK-MEL-28,50 µM (inactive)
same,GI50,NCI-H226,28.5 µM (inactive)
same,GI50,DU-145,45 µM (inactive)
same,GI50,U-251,18.2 µM (inactive)
same,GI50,A498,26.1 µM (inactive)
same,GI50,UACC-257,24.4 µM (inactive)
same,GI50,SK-MEL-2,18.1 µM (inactive)
same,GI50,SW-620,29.1 µM (inactive)
same,GI50,UO-31,36.9 µM (inactive)
same,GI50,HCT-15,19.5 µM
same,GI50,Malme-3M,30.4 µM (inactive)
same,GI50,NCI/ADR-RES,21.9 µM (inactive)
same,GI50,SK-OV-3,65.9 µM (inactive)
same,GI50,HL-60,22.7 µM (inactive)
same,GI50,Hs-578T,27.8 µM (inactive)
same,GI50,HCT-116,21.2 µM (inactive)
same,GI50,BT-549,19.9 µM (inactive)
same,GI50,T47D,35.8 µM (inactive)
same,GI50,TK-10,34.6 µM (inactive)
same,GI50,HOP-62,41.4 µM (inactive)
same,GI50,K562,20.4 µM (inactive)
same,GI50,SF-295,39.5 µM (inactive)
same,GI50,HT-29,22.4 µM (inactive)
same,GI50,SF-268,23.6 µM (inactive)
same,GI50,OVCAR-4,23.2 µM (inactive)
same,GI50,COLO 205,20 µM (inactive)
same,GI50,NCI-H522,20.7 µM (inactive)
same,GI50,SF-539,22.9 µM (inactive)
same,GI50,UACC-62,17.8 µM (inactive)
